Assays:
Bacillus subtilis [1] = settings: cited from earlier work; for MIC for B. subtilis: cultures of Bacillus subtilis, ref 22 (table title); for Activity against B. subtilis: Gram-positive
[2] = test system: A98S MscS in the cytoplasmic membrane of E. coli; experiment: Patch-clamp of A98S MscS in excised spheroplast patches (activation midpoint shift); settings: for log Kmem (patch-clamp): x-intercept of midpoint shift (∆p0.5) vs. concentration, native E. coli membrane, cytoplasmic side; for Redistribution / return of activation midpoint: within the observation time, Supplementary Figure S4
Experimental: A pB10b vector was used to house and express the mscS gene in the triple-knockout E. coli strain MJF465 (mscS^−, mscL^−, mscK^−). The A98S MscS mutant, generated and partially characterized previously, was chosen for its higher sensitivity to inner leaflet drug partitioning.
Spheroplasts were generated as described previously. The experimental bath solution contained 400 mM sucrose, 200 mM KCl, 50 mM MgCl2, 5 mM CaCl2, and 5 mM HEPES and was titrated to pH 7.4 with KOH. Membrane patches were obtained on borosilicate glass pipettes and recorded at 30 mV pipette voltage set by a microelectrode amplifier. The midpoint of activation for channels in each patch was determined at two-minute intervals for the duration of the experiment via a 1 s ramp of saturating pressure. Analogs of platensimycin were pre-diluted in either ethanol or bath solution and perfused into the bath to achieve the desired concentration; control injections of equivalent volumes of ethanol had no effect on the midpoint of activation. Negative pressure (suction) was applied with the HSPC-1 high speed pressure clamp apparatus from ALA Scientific. Programming of the pressure protocols and data analysis was performed with the PClamp10 suite (Axon Instr., Foster City, CA, USA). The principle of lateral pressure measurements using two experimental systems, lipid monolayers and patch-clamp, is illustrated in Figure 1.
Similarly, the bulk-membrane partitioning coefficient (Kmem) was estimated from the values of relative increase in MscS activation pressure midpoint (p0.5) measured in patch-clamp experiments at different concentrations of intercalating agents by linear fit of Δp0.5 as a function of log(Cd).

[3] = Tensiometry at the air-water interface (Wilhelmy method); assay type: physicochemical; settings: for log KAW (tens.): air-water partitioning coefficient, tensiometry, buffer pH 7.4; for Concentration at which changes of surface tension were detected: detected only at this concentration
Experimental: Surface tensions of subphase solutions with varying concentrations of platensimycin analogs were quantified using the Wilhelmy method with a piece of filter paper (Whatman, No. 1, 10.5 mm wide and 0.25 mm thick) used as a probe. The subphase buffer consisted of 200 mM KCl, 10 mM MgCl2, 5 mM CaCl2, 5 mM HEPES (Sigma-Aldrich, St. Louis, MO, USA) titrated to a pH of 7.4 with KOH. The pressure sensor (model 601, NIMA, Coventry, UK) was calibrated using a 100 mg weight. Water surface tension was measured to be […], after calibration. […] The surface activity and values for molecular area at the surface of the air-water interface (As), the partition coefficient at the air-water interface of the surface active molecule (KAW), and the membrane partitioning coefficient (Kmem), were determined as described previously.
The analysis of interfacial adsorption data was performed in the general framework of the Gibbs equation (1) dπ=∑Γidμi where dπ represents a small change in surface pressure, Γi is surface excess of component i and dμi is the small change of chemical potential of that component in the aqueous phase. For one adsorbing component, in an ideal case the Gibbs isotherm takes the form (2) dπ=RTΓd ln C where surface excess is defined as the surface density of molecules Γ = 1/(NAaS), NA is Avogadro’s number and aS is the area requirement for the molecule at the surface. The adsorbing substance gradually saturates the surface; the process that can be approximated by a Langmuir isotherm: (3) Γ=Γ∞lnKAW⋅C/1+KAW⋅C
Thus, beyond a certain bulk concentration, Γ approaches a constant value of Γ∞ and in that range of concentrations a linear relationship holds: (4) Γ∞=(1/RT)dπ/d ln C
To evaluate the partition coefficient for an air-water interface (KAW) and monolayers (Klip), the integral form of this equation attributed to Szyszkowski and previously applied to monolayers by Seelig and coworkers was used: (5) π=RTΓ∞ln(KAWC+1)
As was shown in Suomolainen 2004 [5], the x-intercept of the fitting line of experimental π-lnC curve would approximate the inverse partitioning coefficient 1/KAW, measured at the air-water interface.

[4] = Langmuir monolayer pressure-area isotherms; assay type: physicochemical, E. coli; settings: for log Klip @ 20 mN/m, Measured: E. coli polar lipid monolayer, pH 7.4, ~20 °C; for Effective Molec. Area (ad): area taken by the drug in the monolayer, from slopes of log(ΔArea) vs. surface pressure; for log Klip @ 35 mN/m, Corrected: corrected to the monolayer-bilayer equivalence pressure 35 mN/m (Equation 6)
Experimental: All Langmuir monolayer experiments were done with a two-barrier rectangular 22 cm × 6 cm trough (MicroTrough XS, Kibron Inc., Helsinki, Finland) placed in an Airclean hood. A Dyneprobe metal alloy needle was used as the Wilhelmy plate. Lipids used were E. coli total polar lipid extract from Avanti Polar Lipids (Alabaster, AL, USA) dissolved in chloroform or hexane to a final concentration of 0.2 mg/mL. Distribution of lipids onto the subphase was accomplished using a gastight 50 µL Hamilton® syringe (Hamilton, Reno, NV, USA). The subphase buffer was identical to the tensiometry buffer. Pressure—Area isotherms (monolayers) were performed at room temperature (~20 °C) from 114 to 18 cm^2 at a barrier rate of 20 mm/min. For each analog, isotherms were measured at least four times at every concentration.
In Langmuir experiments, the value of the bulk-monolayer (Klip) partitioning coefficient was determined in a similar way, using the deviations of surface pressure of monolayers measured at constant area. […] However, at this compression, strongly intercalating substances produced pressure shifts beyond the collapse pressure of 45–47 mN/m, which forced us to score Δπ from surface pressure of 20 mN/m achieved at ~80 Å^2/molecule. Klip1 obtained in this expanded state was than corrected for the lateral pressure increase from π1 = 20 to π2 = 35 mN/m, which has the same form as Equation (7) in [5]: (6) ln(Klip2)=ln(Klip1)−(π2−π1)adNA/RT
Here ad is the area taken by the drug in the plane of the monolayer.
To estimate ad we assumed equilibrium between the drug in the subphase and in the monolayer and equated its chemical potentials in the two phases: (7) μ0+RTln(χd)=μ0σ+RTln(χdσ)+π⋅adNA
The right part with indexes σ represents the surface parameters of standard chemical potential µ0σ and drug mole fraction χdσ , whereas the left part represents the bulk parameters. Defining lnKlip = µ0σ −µ0 one can rearrange this equation as (8) lnKlip−lnχdσ−lnχd=π⋅adNA/RT
Differentiating with respect to π gives (9) −RTd(lnχdσ)/NAdπ=ad
Thus the molecular area of the drug defines the slope of χdσ , with which the drug re-partitions back to the subphase as surface pressure π increases. We further assume that at a given surface pressure, insertion of nd drug molecules into the film comprised of nL lipid molecules with initial area A0, should dilate the film by ΔA. (10) nd/nL=ΔA/A0⋅aL/ad
The parameter aL, the area per lipid at that particular pressure, is taken from the control pressure-area isotherm with no drug. The mole fraction of the drug in the monolayer χdσ = nd/(nd + nL) is related to the extent of monolayer dilation ΔA (11) ΔA=ad⋅nd=adnL⋅χdσ/1−χdσ
On the assumption that χdσ is small, ΔA is proportional to the mole fraction of the drug. In Equation (4) we substitute and obtain (12) −kTd(lnΔA)/dπ=ad
Thus, the molecular area of the drug can be determined from the logarithmic slope of ΔA on surface pressure. Once we know ad, we can introduce a correction to Klip due to lateral pressure change ([…]). In addition, we can estimate the molar ratio of drug-to-lipid, the mole fraction χdσ and the partitioning constant. From the extent of monolayer dilation at a constant surface pressure (chosen to be 20 mN/m), the apparent bulk-monolayer partitioning coefficient Klip could be independently estimated as Klip=χdσ/χd , where […] = Cd/55 represents the drug mole fraction in the subphase.

E. coli = test system: E. coli; set-up: method as in PMID 17707686; settings: Gram-negative; only when co-administered with Phe-Arg-β-naphthylamide dihydrochloride (PAβND), efflux pump inhibitor; cited from earlier work
S. aureus, MRSA = test system: S. aureus, MRSA; set-up: method as in PMID 17707686; settings: Gram-positive; cited from earlier work
E. faecium, VRE = test system: E. faecium, VRE; set-up: method as in PMID 17707686; settings: Gram-positive; cited from earlier work
Bacillus subtilis [5] = experiment: Minimal inhibitory concentration with cultures of Bacillus subtilis; assay type: cell-based; settings: in experiments; organism not given
Excerpt: Principally, the efficacy of a drug depends on permeability (first selection), the degree of inhibition of the biological target, rates of drug efflux, drug breakdown, off target binding, and sequestration. In the case of platensimycin, the biological target is FabF. […] Details of docked conformations are presented in the Supplementary Figure S2A,B. Platensimycin and QD-11 show the same estimated binding affinity to FabF (C163Q) (PDB ID: 2GFX) and both are potent antibiotics. […] More specifically, platensimycin and myrtemycin were active against Gram-positive bacteria (S. aureus, MRSA; E. faecium, VRE and B. subtilis) and also Gram-negative bacteria, E. coli (but only when co-adminsitered with Phe-Arg-β-naphthylamide dihydrochloride, PAβND, which is a bacterial efflux pump inhibitor) as described in [18]. For the purpose of comparison with the computational docking predictions, here we present data for B. subtilis.
The bottom row in Table 1 presents minimal inhibitory concentrations (MIC) for all of the substances assayed with gram-positive and gram-negative bacteria. […] Despite the fact that the heterocyclic G271 partitioned into the membrane very well, and can be docked well into FabF, it had virtually no antimicrobial activity.

Row | SMILES | MIC for B. subtilis (Bacillus subtilis [1]) | log Kmem (patch-clamp) [2] | log KAW (tens.) [3] | log Klip @ 20 mN/m, Measured [4] | Effective Molec. Area (ad) [4] | log Klip @ 35 mN/m, Corrected [4] | Activity against B. subtilis (Bacillus subtilis [1]) | Activity against E. coli (E. coli) | Effect on surface tension ([3]; up to 30 µM) | Effective Molec. Area (ad) ([4]; listed as platensimycin) | Activity against S. aureus, MRSA (S. aureus, MRSA) | Activity against E. faecium, VRE (E. faecium, VRE) | Biological / antibiotic activity (Bacillus subtilis [5]) | Redistribution / return of activation midpoint [2] | Concentration at which changes of surface tension were detected [3] | Initial unilateral insertion into the membrane relative to flipping across the membrane ([2]; sequential additions) | Concentration in the subphase at which presence is detectable on isotherms [4]
1 | CC1(C)C2CC=C(CNCCC(=O)Nc3c(O)ccc(C(=O)O)c3O)C1C2 (stereo not drawn) [QL-03] | >256 mg/L | 6.1 | 5.0 | 5.6 | 28 Å^2 | 5.2 | – | – | – | – | – | – | – | – | – | – | –
2 | CC12C[C@@]34C=CC(=O)[C@@](C)(CCC(=O)Nc5c(O)ccc(C(=O)O)c5O)C3[C@H](CC1C4)O2 (stereo partly drawn) [PL, platensimycin] | 2 mg/L | 5.0 | 4.6 | 6.6 | 34 Å^2 | 6.1 | active | active | no visible effect | 31–34 Å^2 | active | active | – | – | – | – | –
3 | O=C(CCN(Cc1cccnc1)Cc1cccnc1)Nc1c(O)ccc(C(=O)O)c1O [G258] | >512 mg/L | – | 4.2 | 5.9 | 18 Å^2 | 5.6 | – | – | – | – | – | – | essentially no biological activity | relatively fast | 10^−4 M | – | –
4 | Cn1ccnc1CN(CCC(=O)Nc1c(O)ccc(C(=O)O)c1O)Cc1nccn1C [G262] | >512 mg/L | – | 4.2 | 5.9 | 17 Å^2 | 5.6 | – | – | – | – | – | – | essentially no biological activity | did not return back | 10^−4 M | – | –
5 | CCCCN(CCCC)CCC(=O)Nc1c(O)ccc(C(=O)O)c1O [QD-06] | 128 mg/L | 5.5 | 4.1 | 5.0 | 30 Å^2 | 4.5 | – | – | – | – | – | – | – | – | – | – | –
6 | CC1(C)C2CC=C(CN(CCC(=O)Nc3c(O)ccc(C(=O)O)c3O)CC3=CCC4CC3C4(C)C)C1C2 [QD-11, myrtemycin] | 4 mg/L | 5.7 | 6.1 | 6.7 | 31 Å^2 | 6.2 | active | active | – | – | active | active | – | – | – | five to six times faster | 10^−7 M
7 | O=C(CCN(Cc1ccc2c(c1)OCO2)Cc1ccc2c(c1)OCO2)Nc1c(O)ccc(C(=O)O)c1O [G271] | >512 mg/L | 6.1 | 4.5 | 6.1 | 18 Å^2 | 5.8 | – | – | – | – | – | – | no antibiotic activity | did not return back | – | – | –

From paper PMC4581228, “Membrane Affinity of Platensimycin and Its Dialkylamine Analogs” (International Journal of Molecular Sciences, 2015)
